Measurements reported in patent US6172110A, “Acylated betulin and dihydrobetulin derivatives, preparation thereof and use thereof” (The University of North Carolina at Chapel Hill, priority 1999, dated 2001).
Entries after “also recorded” stand apart in the source; their conditions may differ. Read-outs that look alike come from different tables or passages of the source.

Legend:
[1] = Cytotoxicity: cell counts of mock-infected H9 cells; assay type: cell-based; details: human
Description: (§1) The biological evaluation of HIV-1 inhibition was carried out according to established protocols, (Kashiwada, Y., et al., J Med Chem. 39:1016-1017 (1996); Hashimoto, F., et al., Bioorg. & Med Chem. 5:2133-2143 (1997)). The T cell line, H9, was maintained in continuous culture with complete medium (RPMI 1640 with 10% fetal calf serum supplemented with L-glutamine at 5% CO2 and 37° C.). Aliquot of this cell line were only used in experiments when in log-phase growth. Test samples were first dissolved in dimethyl sulfoxide. The following final drug concentrations were routinely used for screening: 100, 20, 4 and 0.8 μg/ml. For active agents, additional dilutions were prepared for subsequent testing so that an accurate EC50 value (defined below) could be achieved. As the test samples were being prepared, an aliquot of the H9 cell line was infected with HIV-1 (IIIB isolate) while another aliquot was mock-infected with complete medium. […] The appropriate amount of virus for a multiplicity of infection (moi) between 0.1 and 0.01 Infectious Units/cell was added to the first aliquot of H9 cells. The other aliquot only received culture medium, and these mock-infected cells were used for toxicity determinations (IC50, defined below). After a 4 h incubation at 37° C. and 5% CO2, both cell populations were washed three times with fresh medium and then added to the appropriate wells of a 24 well-plate containing the various concentrations of the test drug or culture medium (positive infected control/negative drug control). In addition, AZT was also assayed during each experiment as a positive drug control. The plates were incubated at 37° C. and 5% CO2 for 4 days. Cell-free supernatants were collected on Day 4 for use in a p24 antigen ELISA assay. P24 antigen is a core protein of HIV and therefore is an indirect measure of virus present in the supernatants. Toxicity was determined by performing cell counts by a Coulter Counter on the mock-infected H9 cells which had either received culture medium (no toxicity), test sample, or AZT.
Compounds of the present invention were assayed for anti-HIV activity according to the following assay procedures. The T cell line, H9, and the promonocytic cell line, U937, were maintained separately in continuous culture with complete medium (RPMI 1640 with 10% fetal calf serum) at 5% CO2 and 37° C. The cell lines were used in experiments only when in the logarithmic phase of growth, whereas uninfected peripheral blood mononuclear cells (PBMCs) were first stimulated with PHA (1 μg/mL) for three days. All cell targets were incubated with HIV-1 (IIIB isolate, TCID50 10^4 IU/ml, at a multiplicity of infection of […] IU/cell) for one hour at 37° C. and 5% CO2. The cell lines and PBMCs were washed thoroughly to remove unadsorbed virions and resuspended at 4×10^5 cells/ml in complete medium or complete medium with 10% v/v interleukin 2 (IL-2) , respectively. One ml. aliquots were placed into wells of 24-well culture plates containing an equal volume of test compounds (diluted in the appropriate culture medium). The toxicity of each compound was assessed by determining the number of compound-exposed uninfected cells that remained after four days at 37° C. and 5% CO2. A p24 antigen ELISA assay was used to determine the level of virus released in the medium of the HIV-infected cultures. The p24 antigen assay used a HIV-1 anti-p24 specific monoclonal antibody as the capture antibody coated onto 96-well plates. Following a sample incubation period, rabbit serum containing antibodies for HIV-1 p24 was used to tag any p24 captured onto the microtiterwell surface. Peroxidase conjugated goat anti-rabbit serum was then used to tag HIV-1 p24 specific rabbit antibodies that had complexed with captured p24. […] The cutoff for the p24 ELISA assay was 12.5 pg/ml. P24 in the culture medium was quantitated against a standard curve containing known amounts of p24. […]

HIV-1 (IIIB isolate) = assay: HIV-1 inhibition (p24 antigen ELISA) in infected H9 lymphocytes; assay type: cell-based; details: for EC50: Human immunodeficiency virus 1, IIIB, Lymphocyte, 96 h, read-out: Anti-HIV Activity EC50; for Therapeutic Index (TI = IC50/EC50): H9 cells, average of at least two experiments; for anti-HIV activity, result in words / TI, result in words: H-9 lymphocytes; for anti-HIV activity, result in words: EC50 compared with related compounds; for TI, result in words: compared with related compounds
Description: as §1, with “Aliquot” for “The biological evaluation of HIV-1 inhibition was carried out according to established protocols, (Kashiwada, Y., et al., J Med Chem. 39:1016-1017 (1996); Hashimoto, F., et al., Bioorg. & Med Chem. 5:2133-2143 (1997)). The T cell line, H9, was maintained in continuous culture with complete medium (RPMI 1640 with 10% fetal calf serum supplemented with L-glutamine at 5% CO2 and 37° C.). Aliquot”, “achieved.” for “achieved. As the test samples were being prepared, an aliquot of the H9 cell line was infected with HIV-1 (IIIB isolate) while another aliquot was mock-infected with complete medium.”
Compounds of the present invention were assayed for anti-HIV activity according to the following assay procedures. […] The cell lines were used in experiments only when in the logarithmic phase of growth, whereas uninfected peripheral blood mononuclear cells (PBMCs) were first stimulated with PHA (1 μg/mL) for three days. […] The cell lines and PBMCs were washed thoroughly to remove unadsorbed virions and resuspended at 4×10^5 cells/ml in complete medium or complete medium with 10% v/v interleukin 2 (IL-2) , respectively. One ml. aliquots were placed into wells of 24-well culture plates containing an equal volume of test compounds (diluted in the appropriate culture medium). The toxicity of each compound was assessed by determining the number of compound-exposed uninfected cells that remained after four days at 37° C. and 5% CO2. A p24 antigen ELISA assay was used to determine the level of virus released in the medium of the HIV-infected cultures. The p24 antigen assay used a HIV-1 anti-p24 specific monoclonal antibody as the capture antibody coated onto 96-well plates. […] P24 in the culture medium was quantitated against a standard curve containing known amounts of p24. The effective (EC50) and inhibitory (IC50) concentrations for anti-HIV activity and cytotoxicity, respectively, were determined.

[2] = toxic to 50% of mock-infected H9 cells, 4 days, average of at least two experiments, read-out: Cytotoxicity IC50

Cc1cn([C@H]2C[C@H](N=[N+]=[N-])[C@@H](CO)O2)c(=O)[nH]c1=O [AZT, reference compound]
CC50 at 96 h [1, 2]: 500 µM

C=C(C)[C@@H]1CC[C@]2(C(=O)O)CC[C@]3(C)[C@H](CC[C@@H]4[C@@]5(C)CC[C@H](OC(=O)CC(C)(C)CC(=O)O)C(C)(C)[C@@H]5CC[C@]43C)[C@@H]12 [Compound 2, reference compound]
EC50 (HIV-1 (IIIB isolate)): 0.0023 µM | CC50 at 96 h ([1]; h9 cells): 4.5 µM

C=C(C)[C@@H]1CC[C@]2(CO)CC[C@]3(C)[C@H](CC[C@@H]4[C@@]5(C)CC[C@H](O)C(C)(C)[C@@H]5CC[C@]43C)[C@@H]12 [Compound 3, betulin]
Therapeutic Index (TI = IC50/EC50) (HIV-1 (IIIB isolate)): 1.9 | anti-HIV activity, result in words (HIV-1 (IIIB isolate)): less potent than betulinic acid (1) | EC50 (HIV-1 (IIIB isolate)): 23 µM | CC50 at 96 h [1, 2]: 43.7 µM

C=C(C)[C@@H]1CC[C@]2(COC(=O)CC(C)(C)CC(=O)O)CC[C@]3(C)[C@H](CC[C@@H]4[C@@]5(C)CC[C@H](OC(=O)CC(C)(C)CC(=O)O)C(C)(C)[C@@H]5CC[C@]43C)[C@@H]12 [Compound 4, 3,28-Di-O-(3',3'-dimethylglutaryl)-betulin]
Therapeutic Index (TI = IC50/EC50) (HIV-1 (IIIB isolate)): 21,515 | anti-HIV activity, result in words (HIV-1 (IIIB isolate)): significantly enhanced activity; also recorded: remarkable anti-HIV activity even greater than that of the betulinic acid derivative 2 | TI, result in words (HIV-1 (IIIB isolate)): remarkably high therapeutic index (TI); also recorded: higher TI than compound 2 | EC50 (HIV-1 (IIIB isolate)): 0.00066 µM | fold more potent than compound 2 (HIV-1 (IIIB isolate); compared with compound 2): about 3 fold | CC50 at 96 h ([1]; h9 cells): 14.2 µM

C=C(C)[C@@H]1CC[C@]2(COC(=O)CC(C)(CC)CC(=O)O)CC[C@]3(C)[C@H](CC[C@@H]4[C@@]5(C)CC[C@H](OC(=O)CC(C)(CC)CC(=O)O)C(C)(C)[C@@H]5CC[C@]43C)[C@@H]12 (stereo partly shown) [Compound 5, 3,28-Di-O-(3',3'-methylethylglutaryl)-betulin]
Therapeutic Index (TI = IC50/EC50) (HIV-1 (IIIB isolate)): 3,476 | anti-HIV activity, result in words (HIV-1 (IIIB isolate)): in the nanomolar range; also recorded: less active compared with compound 4 | EC50 (HIV-1 (IIIB isolate)): 0.0053 µM | CC50 at 96 h ([1]; h9 cells): 18.4 µM

C=C(C)[C@@H]1CC[C@]2(COC(=O)CC3(CC(=O)O)CCCC3)CC[C@]3(C)[C@H](CC[C@@H]4[C@@]5(C)CC[C@H](OC(=O)CC6(CC(=O)O)CCCC6)C(C)(C)[C@@H]5CC[C@]43C)[C@@H]12 [Compound 6, 3,28-Di-O-(3',3'-tetramethyleneglutaryl)-betulin]
Therapeutic Index (TI = IC50/EC50) (HIV-1 (IIIB isolate)): 267 | anti-HIV activity, result in words (HIV-1 (IIIB isolate)): in the nanomolar range; also recorded: less active compared with compound 4; also recorded: least activity | TI, result in words (HIV-1 (IIIB isolate)): lowest TI values | EC50 (HIV-1 (IIIB isolate)): 0.077 µM | CC50 at 96 h ([1]; h9 cells): 20.5 µM

CC(C)[C@@H]1CC[C@]2(COC(=O)CC(C)(C)CC(=O)O)CC[C@]3(C)[C@H](CC[C@@H]4[C@@]5(C)CC[C@H](OC(=O)CC(C)(C)CC(=O)O)C(C)(C)[C@@H]5CC[C@]43C)[C@@H]12 [Compound 8, 3,28-Di-O-(3',3'-dimethyglutaryl)-dihydrobetulin]
Therapeutic Index (TI = IC50/EC50) (HIV-1 (IIIB isolate)): 2,253 | EC50 (HIV-1 (IIIB isolate)): 0.0047 µM | fold drop in TI on saturation of C20-C29 double bond (HIV-1 (IIIB isolate); compared with compound 4): ~9 fold | fold drop in activity on saturation of C20-C29 double bond (HIV-1 (IIIB isolate); compared with compound 4): ~7 fold | CC50 at 96 h ([1]; h9 cells): 10.6 µM

CCC(C)(CC(=O)O)CC(=O)OC[C@]12CC[C@@H](C(C)C)[C@@H]1[C@H]1CC[C@@H]3[C@@]4(C)CC[C@H](OC(=O)CC(C)(CC)CC(=O)O)C(C)(C)[C@@H]4CC[C@@]3(C)[C@]1(C)CC2 (stereo partly shown) [Compound 9, 3,28-Di-O-(3',3'-methylethylglutaryl)-dihydrobetulin]
Therapeutic Index (TI = IC50/EC50) (HIV-1 (IIIB isolate)): 248 | anti-HIV activity, result in words (HIV-1 (IIIB isolate)): less inhibition than the unsaturated 5 and 6 | EC50 (HIV-1 (IIIB isolate)): 0.075 µM | CC50 at 96 h ([1]; h9 cells): 18.7 µM

CC(C)[C@@H]1CC[C@]2(COC(=O)CC3(CC(=O)O)CCCC3)CC[C@]3(C)[C@H](CC[C@@H]4[C@@]5(C)CC[C@H](OC(=O)CC6(CC(=O)O)CCCC6)C(C)(C)[C@@H]5CC[C@]43C)[C@@H]12 [Compound 10, 3,28-Di-O-(3',3'-tetramethyleneglutaryl)-dihydrobetulin]
Therapeutic Index (TI = IC50/EC50) (HIV-1 (IIIB isolate)): 37 | anti-HIV activity, result in words (HIV-1 (IIIB isolate)): less inhibition than the unsaturated 5 and 6; also recorded: least activity | TI, result in words (HIV-1 (IIIB isolate)): lowest TI values | EC50 (HIV-1 (IIIB isolate)): 0.58 µM | CC50 at 96 h ([1]; h9 cells): 21.6 µM

C=C(C)[C@@H]1CC[C@]2(COC(=O)CC(C)(C)CC(=O)O)CC[C@]3(C)[C@H](CC[C@@H]4[C@@]5(C)CC[C@H](O)C(C)(C)[C@@H]5CC[C@]43C)[C@@H]12 [Compound 11, 28-O-(3',3'-Dimethylglutaryl)-betulin]
Therapeutic Index (TI = IC50/EC50) (HIV-1 (IIIB isolate)): 7.8 | anti-HIV activity, result in words (HIV-1 (IIIB isolate)): much less potent than 4 | EC50 (HIV-1 (IIIB isolate)): 3.6 µM | fold more potent than compound 3 (HIV-1 (IIIB isolate); compared with compound 3 (betulin)): 6 fold | CC50 at 96 h ([1]; h9 cells): 28.2 µM

C=C(C)[C@@H]1CC[C@]2(COC(=O)CC(C)(C)CC(=O)O)CC[C@]3(C)[C@H](CC[C@@H]4[C@@]5(C)CCC(=O)C(C)(C)[C@@H]5CC[C@]43C)[C@@H]12 [Compound 12, 3-Deoxy-3-oxo-28-O-(3',3'-dimethylglutaryl)-betulin]
Therapeutic Index (TI = IC50/EC50) (HIV-1 (IIIB isolate)): 2.9 | anti-HIV activity, result in words (HIV-1 (IIIB isolate)): decreased activity further | EC50 (HIV-1 (IIIB isolate)): 10 µM | CC50 at 96 h ([1]; h9 cells): 29.2 µM

C=C(C)[C@@H]1CC[C@]2(COC(=O)CC(C)(C)CC(=O)O)CC[C@]3(C)[C@H](CC[C@@H]4[C@@]5(C)CC=CC(C)(C)[C@@H]5CC[C@]43C)[C@@H]12 [Compound 14]
Therapeutic Index (TI = IC50/EC50) (HIV-1 (IIIB isolate)): 5.2 | anti-HIV activity, result in words (HIV-1 (IIIB isolate)): increased anti-HIV activity | EC50 (HIV-1 (IIIB isolate)): 5.4 µM | CC50 at 96 h ([1]; h9 cells): 28.3 µM
